# Reference: BindingDB's records for doi:10.1016/j.bmc.2013.02.042 (The City University of New York, 2013)
# Molecular target: Sphingosine kinase 1 (Homo sapiens, UniProt Q9NYA1)
# Experiment: Competitive inhibition of SK1 (unknown origin) in presence of ATP
# Sphingosine kinase 1, sequence (Q9NYA1 whole entry): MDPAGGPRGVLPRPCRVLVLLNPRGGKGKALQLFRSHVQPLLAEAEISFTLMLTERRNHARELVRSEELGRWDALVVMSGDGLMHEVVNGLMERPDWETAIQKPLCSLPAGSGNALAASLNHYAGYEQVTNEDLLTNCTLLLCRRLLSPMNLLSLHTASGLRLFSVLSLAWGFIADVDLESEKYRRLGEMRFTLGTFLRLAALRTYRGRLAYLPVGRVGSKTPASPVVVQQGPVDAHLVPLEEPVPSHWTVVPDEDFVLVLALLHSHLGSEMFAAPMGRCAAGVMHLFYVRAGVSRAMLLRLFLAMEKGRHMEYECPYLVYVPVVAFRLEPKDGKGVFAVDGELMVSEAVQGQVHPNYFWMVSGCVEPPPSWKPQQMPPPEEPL
smiles,measurement,value
CCCCCCCCc1ccc(CC[C@](N)(/C=C/P(=O)(O)O)CO)cc1,Ki,10 µM
